Reference: patent publication US6069165A, “Pharmaceutical compositions containing amisulpride and their therapeutic applications” (Synthelabo, priority 1996, dated 2000)

Assay: Bioavailability of amisulpride administered by the oral route
Settings: in vivo, conventional amisulpride, of the order of

bioavailability: 35 to 45%
Compound: CCN1CCCC1CNC(=O)c1cc(S(=O)(=O)CC)c(N)cc1OC (stereo not shown) [amisulpride, 4-amino-N-[(1-ethylpyrrolidin-2-yl)methyl]-5-(ethylsulphonyl)-2-methoxybenzamide]
